“And” between values parts separate entries of the source, which are not always exact repeats. Identical values can stand only once.
Tests used:
Thromboxane Synthetase = molecular target: T1, Thromboxane Synthetase (Homo sapiens, UniProt P24557); test: Inhibition of ADP-induced human platelet aggregation (PRP + pig aortic microsomes) as measure of thromboxane synthetase inhibition; type: cell-based
T1 construct: Human platelet-rich plasma preparation; endogenous in cells; host or cells: human platelets in citrated platelet-rich plasma
T1 sequence (P24557 1-533): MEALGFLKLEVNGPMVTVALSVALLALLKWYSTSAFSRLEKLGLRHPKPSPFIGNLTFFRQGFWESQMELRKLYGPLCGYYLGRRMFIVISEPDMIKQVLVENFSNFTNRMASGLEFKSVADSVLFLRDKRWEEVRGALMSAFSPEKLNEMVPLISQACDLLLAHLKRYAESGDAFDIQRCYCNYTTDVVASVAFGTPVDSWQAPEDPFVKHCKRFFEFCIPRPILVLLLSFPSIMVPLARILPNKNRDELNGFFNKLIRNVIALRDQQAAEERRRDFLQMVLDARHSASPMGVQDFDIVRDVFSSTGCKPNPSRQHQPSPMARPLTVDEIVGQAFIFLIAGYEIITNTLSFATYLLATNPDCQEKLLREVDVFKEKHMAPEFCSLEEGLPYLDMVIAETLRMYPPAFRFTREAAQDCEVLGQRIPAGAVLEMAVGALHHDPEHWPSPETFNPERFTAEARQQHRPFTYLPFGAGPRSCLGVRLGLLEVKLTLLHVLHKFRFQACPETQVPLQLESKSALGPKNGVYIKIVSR
Description: Platelet Aggregation Inhibition
Comparison of 2-(3-pyridylmethyl)naphthalene-6-carboxylic acid and 2-(3-pyridylmethyl)naphthalene-7-carboxylic acid.
Platelet Aggregation Inducer: ADP
Determination of Inhibition and Thromboxane Synthetase Activity Utilizing Human Platelet Aggregation
Human platelet-rich plasma preparation:
Blood sample is collected into siliconized vacutainers containing sodium citrate (0.5 ml of 11.25% sodium citrate per 15 ml vacutainer) final concentration 0.38%. Platelet rich plasma (PRP) is obtained after centrifuging the blood for 15 minutes at 200 xg at room temperature. Blood and plasma contacts only non-wettable plastic or siliconized glass surfaces. Procedure:
1. Aggregation is followed by the turbidimetric method of Born (J. Physiol. 162, 67p, 1962), using a Payton Dual Channel Aggregometer.
2. PRP-PAM control. 1.0 ml PRP is used. Pig aortic microsomes (PAM), prepared according to Neichi, et al. (Prostaglandins, 19(4), 577-86 (1980)), are incubated in PRP at 37° C. with stirring for 3 minutes, immediately followed by addition of inducer-ADP. The concentration of PAM is chosen to show little or no inhibition of platelet aggregation when compared with the aggregation of PRP alone.
3. PRP-PAM plus thromboxane synthetase inhibitor.
Thromboxane synthetase inhibitor is added to 1.0 ml PRP incubated at 37° C. with stirring for two minutes. The PAM concentration is chosen according to step 2, and is added to PRP incubated at 37° C. with stirring for another 3 minutes. The inducer ADP is added immediately afterwards.

prostacyclin = settings: background statement; PGH2 diversion to PGI2 when TxA2 synthesis is blocked; cited from earlier work
[1] = 1 × 10^-4 M, inducer ADP 5×10^-6 M, solvent water
[2] = 1.0 × 10^-7 M, inducer ADP 5×10^-6 M, solvent water
[3] = 2 × 10^-5 M, inducer ADP 5×10^-6 M, solvent water
[4] = 5 × 10^-4 M, inducer ADP 5×10^-6 M, solvent water
[5] = 5.0 × 10^-5 M, inducer ADP 5×10^-6 M, solvent water
[6] = 5 × 10^-6 M, inducer ADP 5×10^-6 M, solvent water
[7] = 5.0 × 10^-7 M, inducer ADP 5×10^-6 M, solvent water

In the case of `O=C(O)c1ccc2cc(Cc3cccnc3)ccc2c1` [2-(3-pyridylmethyl)naphthalene-6-carboxylic acid], the “% Inhibition” value (Thromboxane Synthetase; [1]) is reported as 85.2%, the inhibition at 100 µM (Thromboxane Synthetase; [1]) is reported as 98.3% and the “% Inhibition” value (Thromboxane Synthetase; [2]) is reported as 29.3 ± 3.7%. For the same compound, the inhibition at 0.1 µM (Thromboxane Synthetase; [2]) was 47 ± 5.2%, the inhibition at 0.01 µM (Thromboxane Synthetase; 1.0 × 10^-8 M, inducer ADP 5×10^-6 M, solvent water) was 4.7% and the “% Inhibition” value (Thromboxane Synthetase; [3]) was 97.4 ± 1.3%. The inhibition at 20 µM (Thromboxane Synthetase; [3]) was 90.9 ± 1.3%, the “% Inhibition” value (Thromboxane Synthetase; 2 × 10^-7 M, inducer ADP 5×10^-6 M, solvent water) was 58.7 ± 9.2% and 97.1 ± 1.9% and the inhibition at 0.02 µM (Thromboxane Synthetase; 2.0 × 10^-8 M, inducer ADP 5×10^-6 M, solvent water) was 1.6%. The “% Inhibition” value (Thromboxane Synthetase; [4]) was 87.3%, the inhibition at 500 µM (Thromboxane Synthetase; [4]) was 96.6% and the “% Inhibition” value (Thromboxane Synthetase; [5]) was 86.5 ± 2.2%. For the same compound, the inhibition at 50 µM (Thromboxane Synthetase; [5]) was 86.8 ± 1.8%, the “% Inhibition” value (Thromboxane Synthetase; [6]) was 100.0% and 85.1 ± 4.1% and 85.3 ± 5.5% and the inhibition at 5 µM (Thromboxane Synthetase; [6]) was 88.7 ± 3.5%. For the same compound, the “% Inhibition” value (Thromboxane Synthetase; [7]) was 75.8 ± 3.5%, the inhibition at 0.5 µM (Thromboxane Synthetase; [7]) was 78.3% and the “greater activity as a thromboxane synthetase inhibitor by a factor” value (Thromboxane Synthetase; factor relative to 2-(3-pyridylmethyl)-naphthalene-7-carboxylic acid) was “about 200”.

With `O=C(O)c1ccc2ccc(Cc3cccnc3)cc2c1` [2-(3-pyridylmethyl)naphthalene-7-carboxylic acid, reference compound] the inhibition at 100 µM (Thromboxane Synthetase; [1]) was 88.8%, the inhibition at 20 µM (Thromboxane Synthetase; [3]) was 47.9% and the inhibition at 500 µM (Thromboxane Synthetase; [4]) was 92.8%. The inhibition at 5 µM (Thromboxane Synthetase; [6]) was 18.2% and the IC50 (Thromboxane Synthetase; platelet aggregation inhibition, inducer ADP 5×10^-6 M, solvent water) was 21 µM.

For `O=C(O)c1ccc(OCCn2ccnc2)cc1` [dazoxiben], the “levels of prostacyclin produced” value (prostacyclin) is given as “quite low”.
